# Values quoted from earlier work, collected in patent publication US20250114351A1, “5-HT2C RECEPTOR MODULATING AGENTS FOR THE TREATMENT OF NEURODEGENERATIVE, MENTAL, COGNITIVE AND AUTOIMMUNE CNS DISORDERS” (priority 2022, published 2025).
# What was measured:
# 5-HT2A = 5-HT2A (Homo sapiens, UniProt P28223)
# 5-HT2B = 5-HT2B (Homo sapiens, UniProt P41595)
# 5-HT2C = target: T1, 5-HT2C (Homo sapiens, UniProt P28335)
# T1 sequence (P28335 33-458): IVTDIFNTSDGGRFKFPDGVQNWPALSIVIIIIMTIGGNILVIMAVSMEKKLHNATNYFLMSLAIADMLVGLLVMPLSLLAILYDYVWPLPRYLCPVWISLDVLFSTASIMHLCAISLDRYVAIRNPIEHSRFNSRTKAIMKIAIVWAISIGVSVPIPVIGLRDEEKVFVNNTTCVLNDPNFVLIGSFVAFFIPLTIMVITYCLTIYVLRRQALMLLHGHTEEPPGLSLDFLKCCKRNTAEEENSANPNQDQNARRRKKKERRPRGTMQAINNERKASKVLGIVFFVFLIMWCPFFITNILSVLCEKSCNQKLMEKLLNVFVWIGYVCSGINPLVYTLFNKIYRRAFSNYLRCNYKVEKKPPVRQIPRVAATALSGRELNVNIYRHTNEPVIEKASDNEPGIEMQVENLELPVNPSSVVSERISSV
# 5-HT2A, sequence (P28223 whole entry, species assumed): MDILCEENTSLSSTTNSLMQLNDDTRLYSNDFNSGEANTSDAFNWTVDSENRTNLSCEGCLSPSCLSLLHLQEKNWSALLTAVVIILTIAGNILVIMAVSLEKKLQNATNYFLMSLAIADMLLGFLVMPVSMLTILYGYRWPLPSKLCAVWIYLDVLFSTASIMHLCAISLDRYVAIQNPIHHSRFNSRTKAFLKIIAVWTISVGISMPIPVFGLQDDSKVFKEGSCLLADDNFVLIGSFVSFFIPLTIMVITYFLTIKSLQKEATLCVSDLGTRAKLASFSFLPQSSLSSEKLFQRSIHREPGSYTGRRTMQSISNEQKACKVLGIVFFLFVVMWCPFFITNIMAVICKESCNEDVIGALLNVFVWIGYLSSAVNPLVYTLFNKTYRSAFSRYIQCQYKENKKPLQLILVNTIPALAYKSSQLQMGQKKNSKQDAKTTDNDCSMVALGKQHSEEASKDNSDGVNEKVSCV
# 5-HT2B, sequence (P41595 whole entry, species assumed): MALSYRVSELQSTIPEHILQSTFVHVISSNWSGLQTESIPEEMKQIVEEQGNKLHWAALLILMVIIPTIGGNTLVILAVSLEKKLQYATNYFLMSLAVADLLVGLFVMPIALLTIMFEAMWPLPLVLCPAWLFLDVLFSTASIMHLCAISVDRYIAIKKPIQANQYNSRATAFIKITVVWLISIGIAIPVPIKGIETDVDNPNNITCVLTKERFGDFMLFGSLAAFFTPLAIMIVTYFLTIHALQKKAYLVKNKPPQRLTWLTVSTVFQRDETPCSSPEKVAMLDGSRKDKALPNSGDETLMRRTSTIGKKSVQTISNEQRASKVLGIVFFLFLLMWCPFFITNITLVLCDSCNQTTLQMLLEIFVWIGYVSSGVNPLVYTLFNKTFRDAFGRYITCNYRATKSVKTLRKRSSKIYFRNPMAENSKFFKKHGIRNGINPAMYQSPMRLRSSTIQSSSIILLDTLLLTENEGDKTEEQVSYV
smiles,measurement,setting,value
c1cc2c3c(c1)[C@H]1CCC[C@H]1CN3CCNC2 [Vabicaserin],EC50,5-HT2A,1650 nM
"Clc1cccc(COc2cncc(N3CCNCC3)n2)c1 [CP-809101, 2-(3-Chlorobenzyloxy)-6-(piperazin-1-yl)pyrazine]",5-HT2A Emax,5-HT2A,67%
same,EC50,5-HT2A,153 nM
"c1cc2c3c(c1)[C@H]1CCC[C@H]1N3CCNC2 [WAY-163909, (7bR,10aR)-1,2,3,4,8,9,10,10a-octahydro-7bH-cyclopenta-[b][1,4]diazepino[6,7,1hi]indole]",EC50,5-HT2B,185 ± 105 nM
"C[C@H](N)Cn1ccc2cc(F)c(Cl)cc21 [RO 60-01752, (S)-2-(6-chloro-5-fluoroindol-1-yl)-1-methylethylamine]",5-HT2C Emax,5-HT2C,88 ± 20%
same,5-HT2A Emax,5-HT2A,91 ± 5%
same,5-HT2B Emax,5-HT2B,130 ± 30%
"C[C@H]1CNCCc2ccc(Cl)cc21 [Lorcaserin, (1R)-8-chloro-2,3,4,5-tetrahydro-1-methyl-1H-3-benzazepine]",5-HT2C Emax,5-HT2C,100%
same,5-HT2A Emax,5-HT2A,75%
